Each structure is given as a SMILES string. ≈ marks a conversion by molar mass, not a printed value.

The values below come from patent publication US10835614B2, “Poly(diol fumarates) and poly(diol fumarate-co-succinates)” (William Marsh Rice University, priority 2016, dated 2020).

Assay in all cases: MIC, CLSI M38-A2 broth microdilution antifungal susceptibility testing
The subject of experiment [1] is C. albicans Y4215. Type of experiment: cell-based. To be noted: diols tested from 1024 μg/mL to 0.0625 μg/mL, triplicate; for MIC: Candida albicans, Y4215, read-out: minimum inhibitory concentration (MIC), C. albicans. How it is done: (§1) A. fumigatus Af293, C. albicans Y4215 and Rhiozpus oryzae R0969, all clinical isolates of pathogenic species, were used to determine the antifungal activity of three different terminal diols: 1,6-hexanediol; 1,8-octanediol; and 1,10-decanediol (all purchased from Sigma-Aldrich, St. Louis, Mo.). Briefly, minimum inhibitory concentration (MIC) was determined following the Clinical Laboratory & Standards Institute (CLSI) M38-A2 broth microdilution antifungal susceptibility testing method. […] The experiment was performed in triplicate for each species and each diol.

Experiment [2] has as its system A. fumigatus Af293. Type of experiment: cell-based. The note with it: diols tested from 1024 μg/mL to 0.0625 μg/mL, triplicate; for MIC: Aspergillus fumigatus, AF293, read-out: minimum inhibitory concentration (MIC), A. fumigatus. How it is done:
as §1

The test system of experiment [3] is Rhiozpus oryzae R0969. Type of experiment: cell-based, R. oryzae. The note with it: diols tested from 1024 μg/mL to 0.0625 μg/mL, triplicate; for MIC: Rhizopus arrhizus, R0969, read-out: minimum inhibitory concentration (MIC), R. oryzae. Here is the method: as §1

With `OCCCCCCO` [1,6-Hexanediol, 1,6-hexanediol], in experiment [1], the MIC is not below 1020 µg/mL and the “minimum inhibitory concentration (MIC), C. albicans” value is recorded as “did not demonstrate activity”. Also, in experiment [2], the MIC is not below 1020 µg/mL and the “minimum inhibitory concentration (MIC), A. fumigatus” value was “did not demonstrate activity”. In experiment [3], the MIC is not below 1020 µg/mL and the “minimum inhibitory concentration (MIC), R. oryzae” value is given as “did not demonstrate activity”.

For `OCCCCCCCCO` [1,8-Octanediol, 1,8-octanediol], in experiment [1], the MIC is not below 1020 µg/mL and the “minimum inhibitory concentration (MIC), C. albicans” value is on record as “did not demonstrate activity”. Also, in experiment [2], the MIC is not below 1020 µg/mL and the “minimum inhibitory concentration (MIC), A. fumigatus” value is reported as “did not demonstrate activity”. In experiment [3], the MIC was not below 1020 µg/mL and the “minimum inhibitory concentration (MIC), R. oryzae” value is given as “did not demonstrate activity”.

Turning to `OCCCCCCCCCCO` [1,10-Decanediol, 1,10-decanediol], the MIC is not below 1020 µg/mL in experiment [1], 256 µg/mL (≈ 1.47 mM) in experiment [2] and 1020 µg/mL (≈ 5.88 mM) in experiment [3].
